Among the data in patent EP4772509A1, “KINESIN KIF18A INHIBITOR, AND APPLICATION THEREOF” (Shanghai Apeiron Therapeutics Company Limited, priority 2023, dated 2025) are IC50 values, retold here.

Read-outs that look alike come from different tables or passages of the source.

In assay [1] the target is T1, Human KIF18A (amino acid sequence 1-417) (Homo sapiens, UniProt Q8NI77).
T1 construct: purchased Viva Biotech (Shanghai) Ltd
T1 sequence (Q8NI77 1-417): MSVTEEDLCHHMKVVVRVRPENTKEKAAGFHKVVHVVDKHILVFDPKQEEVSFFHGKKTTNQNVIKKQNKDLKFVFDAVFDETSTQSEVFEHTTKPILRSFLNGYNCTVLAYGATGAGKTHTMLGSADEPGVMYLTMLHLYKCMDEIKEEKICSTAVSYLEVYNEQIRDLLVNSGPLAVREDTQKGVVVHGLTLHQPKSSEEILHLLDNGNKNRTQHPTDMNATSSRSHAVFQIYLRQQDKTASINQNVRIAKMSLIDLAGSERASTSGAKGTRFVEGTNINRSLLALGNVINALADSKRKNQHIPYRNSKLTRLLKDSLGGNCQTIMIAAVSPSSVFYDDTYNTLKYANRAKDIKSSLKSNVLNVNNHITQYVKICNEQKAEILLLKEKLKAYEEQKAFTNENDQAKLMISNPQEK
Briefly: Enzymatic activity test (ADP-Glo, microtubule-stimulated ATPase). It counts as biochemical. Particulars: 60 µg/mL microtubules, 25 µM ATP, 2.5 nM KIF18A protein, 120 min at ambient temperature, chemiluminescence; read-out: KIF18A IC50. Put shortly:
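Compounds (0-10 µM final, from 10 mM DMSO stock) were incubated 120 min at room temperature with 2.5 nM KIF18A 1-417, 25 µM ATP and 60 µg/mL microtubules. ATPase output was measured as ADP via ADP-Glo luminescence.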

For another assay, the system named is OVCAR3 cells. Briefly: Cell proliferation activity test (CyQUANT Direct). To be noted: 3 days, 0.2% DMSO, CyQUANT fluorescence. Format: cell-based. Summed up:
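OVCAR3 cells in RPMI-1640 with 10% FBS were seeded, then treated overnight later with compound at final 0–10 µM (0.2% DMSO) for 3 days at 37°C, 5% CO2. Proliferation was read as CyQUANT Direct fluorescence after 60 min at 37°C.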

In another assay the test system is HT29 cells. Briefly: CyQuant cell proliferation activity test. It counts as cell-based. To be noted: HT29 at 2000 cells per well, 3 days, 0.2% DMSO, XLFIT. Put shortly:
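Cells seeded at 2000/well in RPMI-1640 with 10% FBS, left overnight, then exposed 3 days at 37 °C, 5% CO2 to a 9-point 3-fold series from 3000 nM (0.2% DMSO). CyQuant signal read after 1 h; IC50 from curve fit.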

As to `Cn1c2nc(cc1=O)NC(=O)c1c(cc(NS(=O)(=O)CCO)c3c1CCC3=O)N1CCC(C/C=C\C3CN2CCC3(F)F)CC1` (stereo not drawn) [Example 9, N-(11,11-difluoro-6-methyl-1,5,22-trioxo-1,5,6,9,10,11,12,15,16,17,18,22,23,24-tetradecahydro-2H-3,7-(azanediyl)-16, 19-ethano-8,12-methyleneindeno[4,5-i] [1,3,7,11]tetraazacyclohenicosan-21-yl)-2-hydroxyethane-1-sulfonamide], the IC50 in assay [1] was 0.264 µM; in the assay with OVCAR3 cells (Homo sapiens, OVCAR-3, 72 h), 1.06 µM; in the assay with HT29 cells (Homo sapiens, HT-29, 72 h) it was 1.02 µM.

Consider `COc1cc2nc(n1)N1CCC(F)(F)C(/C=C\CC3CCN(CC3)c3cc(NS(=O)(=O)CCO)c4c(c3C(=O)N2)CCC4=O)C1` (stereo not drawn) [Example 5, N-(1^4,1^4-difluoro-2^6-methoxy-5^1,4-dioxo-5^2,5^3-dihydro-5^1H-3-aza-2(2,4)-pyrimidin-1(1,3),6(1,4)-dipiperidin-5(4,5)-indenoheterocyclononane-8-en-5^7-yl)-2-hydroxyethane-1-sulfonamide], for which the IC50 in assay [1] is 0.162 µM; with OVCAR3 cells (Homo sapiens, OVCAR-3, 72 h), 0.042 µM; with HT29 cells (Homo sapiens, HT-29, 72 h) it was 0.042 µM.

Turning to `Cc1cc2nc(n1)N1CCC(F)(F)[C@@H](CCCC3CCN(CC3)c3cc(NS(=O)(=O)CCO)c4c(c3C(=O)N2)CCC4=O)C1` [Example 6, N-((1^3S)-1^4,1^4-difluoro-2^6-methyl-5^1,4-dioxo-5^2,5^3-dihydro-5^1H-3-aza-2(2,4)-pyrimidin-1(1,3),6(1,4)-dipiperidin-5(4,5) -indenoheterocyclononane-5^7-yl)-2-hydroxyethane-1-sulfonamide], the IC50 in assay [1] is 0.073 µM; with OVCAR3 cells (Homo sapiens, OVCAR-3, 72 h) it was 0.041 µM; in the assay on HT29 cells (Homo sapiens, HT-29, 72 h), 0.041 µM.

Turning to `Cc1cc2nc(n1)N1CCC(F)(F)C(/C=C\CC3CCN(CC3)c3cc(NS(=O)(=O)CCO)c4c(c3C(=O)N2)CCC4)C1` (stereo not drawn) [Example 4, N-(1^4,1^4-difluoro-2^6-methyl-4-oxo-5^2,5^3-dihydro-5^1H-3-aza-2(2,4)-pyrimidin-1(1,3),6(1,4)-dipiperidin-5(4,5)-indenoheterocyclonon-8-en-5^7-yl)-2-hydroxyethane-1-sulfonamide], the IC50 in assay [1] was 0.404 µM; in the assay with OVCAR3 cells (Homo sapiens, OVCAR-3, 72 h) it was 0.049 µM; with HT29 cells (Homo sapiens, HT-29, 72 h) it was 0.055 µM.

As for `Cc1cc2nc(n1)N1CCC(F)(F)C(/C=C\CC3CCN(CC3)c3cc(NS(=O)(=O)C(C)CO)c4c(c3C(=O)N2)CCC4=O)C1` (stereo not drawn) [Example 11, (Z)-N-(1^4,1^4-difluoro-2^6-methyl-5^1,4-dioxo-5^2,5^3-dihydro-5^1hydro-3-aza-2(2,4)-pyrimidin-1(1,3),6(1,4)-dipiperidin-5(4, 5)-indenocyclonofin-8-en-5^7-yl)-1-hydroxypropane-2-sulfonamide], the IC50 came to 0.076 µM in assay [1]; 0.025 µM in the assay with OVCAR3 cells (Homo sapiens, OVCAR-3, 72 h); 0.033 µM in the assay on HT29 cells (Homo sapiens, HT-29, 72 h).

For `COc1cc2nc(n1)N1CCC(F)(F)C(CCCc3ccc(cc3)-c3cc(NS(=O)(=O)CCO)ccc3C(=O)N2)C1` (single isomer, unassigned) [Example 51A, N-(1^4,1^4-difluoro-2^6-methoxy-4-oxo-3-aza-2(2,4)-pyrimidin-1(1,3)-piperidin-5(1,2),6(1,4)-dibenzylcyclononane-5^4-yl)-2-hydroxyethane-1-sulfonamide], the IC50 in assay [1] stood at 0.107 µM; in the assay with OVCAR3 cells (Homo sapiens, OVCAR-3, 72 h) it was 0.045 µM; in the assay with HT29 cells (Homo sapiens, HT-29, 72 h), 0.039 µM.

With `COC(=O)c1cc2c(cc1NS(=O)(=O)CCO)N1CCC(C/C=C/C3CN(CCC3(F)F)c3nc(C)cc(n3)-c3cn-2nn3)CC1` (stereo not drawn) [Example 92A, methyl(3^4Z,7E)-1^4,1^4-difluoro-4^4-((2-hydroxyethyl)sulfonamido)-2^6-methyl 3^1H-2(2,4)-pyrimidin-1(1,3),5(1,4)-dipiperidin-3(4,1)-triazole-4(1,2)-benzocyclooct-7-en-4^5carboxylate], the IC50 was 0.427 µM in assay [1]; 0.141 µM in the assay on OVCAR3 cells (Homo sapiens, OVCAR-3, 72 h); 0.154 µM in the assay with HT29 cells (Homo sapiens, HT-29, 72 h).

Regarding `Cc1cc2nc(n1)N1CCC(F)(F)C(C=CCC3CCN(CC3)c3cc(NS(=O)(=O)CCO)c4c(c3C(=O)N2)CNC4=O)C1` (stereo not drawn) [Example 16, N-(6^4,6^4-difluoro-5^6-methyl-2^1,3-dioxo-2^2,2^3-dihydro-2^1H-4-aza-2(5,4)-isoindole-5(4,2)-pyrimidin-1(1,4),6(1,3)-dipiperidineheterocyclonon-7-en-2^7-yl)-2-hydroxyethane-1-sulfonamide], the figures for the IC50 (in assay [1]; with OVCAR3 cells; with HT29 cells (read-out: HT-29 IC50)) were 0.045 µM, 0.089 µM and 0.095 µM, respectively.

Turning to `Cc1cc2nc(n1)N1CCC(F)(F)[C@@H](CCCC3CCN(CC3)c3cc(NS(=O)(=O)CCO)ccc3-n3cc-2nn3)C1` [Example 85, N-((1^3S,Z)-1^4,1^4-difluoro-2^6-methyl-3^1H-2(2,4)-pyrimidin-1(1,3),5(1,4)-dipiperidin-3(4,1)-triazole-4(1,2)-benzylcyclooctyl-4^4-yl)-2-hydroxyethane-1-sulfonamide], the IC50 in assay [1] came out at 0.35 µM; with OVCAR3 cells (Homo sapiens, OVCAR-3, 72 h), 0.06 µM; in the assay on HT29 cells (Homo sapiens, HT-29, 72 h), 0.076 µM.

For `Cc1cc2nc(n1)N1CCC(F)(F)C(CCc3ccc(cc3)-c3cc(NS(=O)(=O)CCO)ccc3C(=O)N2)C1` (stereo not drawn) [Example 45, N-(2^4,2^4-difluoro-1^6-methyl-7-oxo-8-aza-1(2,4)-pyrimidin-2(1,3)-piperidin-5(1,4),6(1,2)-dibenzylcycloophene-6^5-yl)-2-hydroxyethane-1-sulfonamide], the IC50 was found to be 0.114 µM in assay [1]; 0.077 µM with OVCAR3 cells (Homo sapiens, OVCAR-3, 72 h); 0.1 µM in the assay with HT29 cells (Homo sapiens, HT-29, 72 h).

As for `Cc1cc2nc(n1)N1CCC(F)(F)C(CCCc3ccc(nc3)-c3cc(NS(=O)(=O)CCO)ccc3C(=O)N2)C1` (stereo not drawn) [Example 49, N-(1^4,1^4-difluoro-2^6-methyl-4-oxo-3-aza-2(2,4)-pyrimidin-6(2,5)-pyridin-1(1,3)-piperidin-5(1,2)-phenylheterocyclononane-5^4-yl)-2-hydroxyethane-1-sulfonamide], the IC50 in assay [1] is 0.187 µM; in the assay on OVCAR3 cells (Homo sapiens, OVCAR-3, 72 h), 1.08 µM; in the assay on HT29 cells (Homo sapiens, HT-29, 72 h), 1.31 µM.

For `CON(C)C(=O)c1cc2c(cc1NS(=O)(=O)CCO)N1CCC(C/C=C/C3CN(CCC3(F)F)c3nc(C)cc(n3)-c3cn-2nn3)CC1` (stereo not drawn) [Example 90, (3^4Z,7E)-1^4,1^4-difluoro-4^4-((2-hydroxyethyl)sulfonamido)-N-methoxy-N,2^6-dimethyl-3^1H-2(2,4)-pyrimidin-1(1,3),5(1,4) -dipiperidin-3(4,1)-triazole-4(1,2)-benzocyclooct-7-en-45-carboxamide], the IC50 in assay [1] came out at 0.274 µM; with OVCAR3 cells (Homo sapiens, OVCAR-3, 72 h) it was 0.136 µM; in the assay with HT29 cells (Homo sapiens, HT-29, 72 h) it was 0.333 µM.

In the case of “N-((3^4Z, 7Z)-1^4,1^4-difluoro-2^6-methyl-3^1H-2(2,4)-pyrimidin-1(1,3),5(1,4)-dipiperidin-3(4,1)-triazole-4(1,2)-benzocyclooct-7-en-4^4-y 1)-2-hydroxyethane-1-sulfonamide [Example 81B]”, the IC50 in assay [1] is 0.491 µM; in the assay with OVCAR3 cells it was 0.178 µM; with HT29 cells (read-out: HT-29 IC50) it was 0.254 µM.

Consider “Methyl(3^4Z,7Z)-1^4,1^4-difluoro-4^4-((2-hydroxyethyl)sulfonamido)-2^6-methyl 3^1H-2(2,4)-pyrimidin-1(1,3),5(1,4)-dipiperidin-3(4,1)-triazole-4(1,2)-benzocyclooct-7-en-4^5 carboxylate [Example 92B]”, for which the half-maximal inhibitory concentration (IC50) amounted to 0.405 µM in assay [1], 0.173 µM with OVCAR3 cells and 0.164 µM in the assay with HT29 cells (read-out: HT-29 IC50).

With `CCS(=O)(=O)Nc1cc2c(c3c1C(=O)CC3)C(=O)Nc1cc(C)nc(n1)N1CCC(F)(F)C(C=CCC3CCN2CC3)C1` (stereo not drawn) [Example 18, N-(1^4,1^4-difluoro-2^6-methyl-5^1,4-dioxo-5^2,5^3-dihydro-5^1H-3-aza-2(2,4)-pyrimidin-1(1,3),6(1,4)-dipiperidin-5(4,5)-indenoheterocyclonon-8-en-5^7-yl)-ethanesulfonamide], the IC50 in assay [1] was 0.067 µM; in the assay on OVCAR3 cells, 0.038 µM; with HT29 cells (read-out: HT-29 IC50), 0.041 µM.

Consider `Cc1cc2nc(n1)N1CCC(F)(F)C(CCCc3ccc(cc3)-c3cc(NS(=O)(=O)CCO)ccc3C(=O)N2)C1` (single isomer, unassigned) [Example 46A, N-(1^4,1^4-difluoro-2^6-methyl-4-oxo-3-aza-2(2,4)-pyrimidin-1(1,3)-piperidin-5(1,2),6(1,4)-diphenylheterocyclononane-5^4-yl)-2-hydroxyethane-1-sulfonamide], for which the IC50 in assay [1] came to 0.117 µM; in the assay on OVCAR3 cells (Homo sapiens, OVCAR-3, 72 h), 0.036 µM; in the assay on HT29 cells (Homo sapiens, HT-29, 72 h), 0.058 µM.
